Data taken from the OPERA property sets (Mansouri et al. 2018).

SMILES | logP
CNC12c3ccccc3CC1CCCC2C (stereo unspecified) | 3.44
CNC12CCCCC1c1ccccc1C2 (stereo unspecified) | 3.43
CNC12CCC(CN)CC1Cc1ccccc12 (stereo unspecified) | 1.84
CNC12CCCCCC1Cc1ccccc12 (stereo unspecified) | 3.77
NC12CCCC1Cc1ccccc12 (stereo unspecified) | 2.58
CNC12CCCCC1Cc1cc(OC)ccc12 (stereo unspecified) | 3.51
CNC12CCCCC1Cc1ccccc12 (stereo unspecified) | 3.38
CNCC1CCC2(NC)c3ccccc3CC2C1 (stereo unspecified) | 2.48
CNC12CCCCC1Cc1ccc(OC)cc12 (stereo unspecified) | 3.54
CCNC12c3ccccc3CC1CCCC2C (stereo unspecified) | 3.8
C=C1c2ccccc2C2(NC)CCCCC12 (stereo unspecified) | 3.79
